Patent publication US4281121A, “1,3,4-Thiadiazole-2-carboxylic acid derivatives, process for making the same and fungicidal and nematocidal compositions containing same” (Schering Aktiengesellschaft, priority 1978, dated 1981)
Where two headings read alike, the source gives them in different places.

Legend:
[1] = test system: Tilletia caries; test: Treatment of oat seeds infested with Tilletia caries (spore germination); format: in vivo
[2] = test system: Pythium ultimum; test: Threshold concentration test for use of the compounds against Pythium ultimum (infested soil, garden peas); format: in vivo; set-up: key to root evaluation (1-4): 4: white roots without fungous necrosis; 3: white roots, minor fungous necrosis; 2: brown roots, already more pronounced fungous necrosis; 1: heavy fungous necrosis, roots rotted; settings: for root evaluation (1-4): 3 weeks; for number of sound peas: 20 grains per dish, 3 weeks at 20-24° C.
Protocol: Threshold concentration test for use of the compounds against Pythium ultimum
A 20% concentration of certain pulverulent active agents as listed below were mixed in uniform manner into a soil which had been heavily infested by Pythium ultimum. The thus treated soil was then placed into clay dishes of a capacity of 0.5 l earth. Without any intermediate time lapse 20 grain of garden peas (Pisum sativum L. convar. medullare Alef.) of the type "Wunder von Kelvedon" were then seeded into each of the clay dishes. After a cultivation period of three weeks at 20° to 24° C. in a hothouse the number of sound peas was determined and a root evaluation was carried out. The active agents amounts and results appear from the following table.
(§1) The root evaluation was carried out on a scale from 1 to 4 as follows: […]

[3] = test system: Fusarium avenaceum; test: Threshold concentration test in case of Fusarium avenaceum (infested soil, garden peas); format: in vivo; settings: for number of sound peas: 20 grains per dish, 18 days at 20-24° C.; for root evaluation (1-4): 18 days
Protocol: Threshold concentration test in case of Fusarium avenaceum
A 20% pulverulent active agent of the type further identified in the table below was mixed in uniform manner with a soil which had been heavily infested with Fusarium avenaceum. The thus treated soil was then placed into clay dishes of a capacity of 0.5 l of earth. Each dish was seeded without any intervening time with 20 grains of garden peas (Pisum sativum L. convar. medullare Alef.) of the type "Wunder von Kelvedon". After a cultivation time of 18 days at 20° to 24° C. in a hot house the number of sound peas was determined and a root evaluation was carried out. The active agents employed, the amounts and results appear from the following table.
as §1

[4] = test system: Helminthosporium gram; settings: about 5 weeks
Protocol: Treatment of barley seeds infested with Helminthosporium gram
After emergence, the plants were subjected to illumination for 12 hours per day. After about 5 weeks the infested plants were counted and the total number of plants for each test were also counted. The active agents tested were used as pulverulent compositions.

SMILES | % activity ([1]; 50 g active agent per 100 kg) | root evaluation (1-4) ([2]; 20 mg/l soil) | number of sound peas ([2]; 20 mg/l soil) | root evaluation (1-4) ([2]; 40 mg/l soil) | number of sound peas ([2]; 40 mg/l soil) | root evaluation (1-4) ([2]; 80 mg/l soil) | number of sound peas ([2]; 80 mg/l soil) | number of sound peas ([3]; 25 mg/l soil) | root evaluation (1-4) ([3]; 25 mg/l soil) | number of sound peas ([3]; 50 mg/l soil) | root evaluation (1-4) ([3]; 50 mg/l soil) | number of sound peas ([3]; 100 mg/l soil) | root evaluation (1-4) ([3]; 100 mg/l soil) | % activity ([4]; 50 g active agent per 100 kg) | % activity ([1]; 20 g active agent per 100 kg) | % activity ([4]; 20 g active agent per 100 kg) | % activity ([1]; 10 g active agent per 100 kg)
CCCC[S+]([O-])c1nnc(C#N)s1 (centres unmarked) [5-butylsulfinyl-1,3,4-thiadiazole-2-carbonitrile] | 100% | 4 | 18 | 4 | 18 | 4 | 20 | 19 | 4 | 19 | 4 | 19 | 4 |  |  |  | 
CCCC[S+]([O-])c1nnc(C(=O)N(C)C)s1 (centres unmarked) [5-butylsulfinyl-1,3,4-thiadiazole-2-carboxylic acid-dimethylamide] |  |  |  |  |  |  |  |  |  |  |  |  |  | 100% |  |  | 
CCCCS(=O)(=O)c1nnc(C(=O)N2CCC2)s1 [5-butylsulfonyl-1,3,4-thiadiazole-2-carboxylic acid-N,N-trimethylenamide] | 100% |  |  |  |  |  |  | 5 | 1 | 13 | 2 | 18 | 3 |  |  |  | 
CCS(=O)(=O)c1nnc(C(=O)N2CCC2)s1 [5-ethylsulfonyl-1,3,4-thiadiazole-2-carboxylic acid-N,N-trimethyleneamide] |  | 4 | 20 | 4 | 19 | 4 | 20 |  |  |  |  |  |  |  |  |  | 
CC(C)[S+]([O-])c1nnc(C#N)s1 (centres unmarked) [5-isopropylsulfinyl-1,3,4-thiadiazole-2-carbonitrile] | 100% | 3 | 17 | 4 | 17 | 4 | 19 | 18 | 4 | 19 | 4 | 18 | 4 | 93% | 87% |  | 
CC(C)[S+]([O-])c1nnc(C(N)=O)s1 (centres unmarked) [5-isopropylsulfinyl-1,3,4-thiadiazole-2-carboxamide] | 100% |  |  |  |  |  |  |  |  |  |  |  |  | 100% |  |  | 
CC(C)[S+]([O-])c1nnc(C(=O)NCC2CCCCC2)s1 (centres unmarked) [5-isopropylsulfinyl-1,3,4-thiadiazole-2-carboxylic acid-cyclohexylmethylamide] | 100% |  |  |  |  |  |  |  |  |  |  |  |  |  | 99% |  | 
C[S+]([O-])c1nnc(C#N)s1 (centres unmarked) [5-methylsulfinyl-1,3,4-thiadiazole-2-carbonitrile] | 100% | 4 | 19 | 4 | 20 | 4 | 20 | 20 | 4 | 18 | 4 | 19 | 4 | 94% | 100% |  | 
C[S+]([O-])c1nnc(C(N)=O)s1 (centres unmarked) [5-methylsulfinyl-1,3,4-thiadiazole-2-carboxamide] | 100% |  |  |  |  |  |  |  |  |  |  |  |  | 100% | 98% |  | 
C[S+]([O-])c1nnc(C(=O)NCc2ccccc2Cl)s1 (centres unmarked) [5-methylsulfinyl-1,3,4-thiadiazole-2-carboxylic acid-(2-chlorobenzyleamide)] |  |  |  |  |  |  |  | 7 | 2 | 11 | 3 | 18 | 4 |  |  |  | 
COCCNC(=O)c1nnc(S(C)(=O)=O)s1 [5-methylsulfonyl-1,3,4-thiadiazole-2-carboxylic acid-(2-methoxyethyl)-amide] | 100% |  |  |  |  |  |  |  |  |  |  |  |  | 100% | 93% | 92% | 
C=CCNC(=O)c1nnc([S+]([O-])CCC)s1 (centres unmarked) [5-propylsulfinyl-1,3,4-thiadiazole-2-carboxylic acid-allylamide] | 100% | 2 | 15 | 4 | 19 | 4 | 19 |  |  |  |  |  |  | 96% | 100% |  | 
CCC[S+]([O-])c1nnc(C(=O)NC(C)C)s1 (centres unmarked) [5-propylsulfinyl-1,3,4-thiadiazole-2-carboxylic acid-isopropylamide] | 100% |  |  |  |  |  |  | 9 | 3 | 13 | 4 | 16 | 4 | 100% | 100% |  | 
CCCS(=O)(=O)c1nnc(C(=O)NCCCCl)s1 [5-propylsulfonyl-1,3,4-thiadiazole-2-carboxylic acid-(3-chloropropyl)-amide] |  | 1 | 10 | 3 | 19 | 4 | 19 |  |  |  |  |  |  |  |  |  | 
CCCCNC(=O)c1nnc(S(=O)(=O)CCC)s1 [5-propylsulfonyl-1,3,4-thiadiazole-2-carboxylic acid-butylamide] | 100% |  |  |  |  |  |  | 9 | 1 | 16 | 3 | 17 | 4 |  | 99.7% |  | 99.2%
CCCS(=O)(=O)c1nnc(C(=O)NCC)s1 [5-propylsulfonyl-1,3,4-thiadiazole-2-carboxylic acid-ethylamide] | 100% | 3 | 14 | 4 | 14 | 4 | 14 |  |  |  |  |  |  |  | 99.8% |  | 99.3%
S=C([S-])NCCNC(=S)[S-].[Mn+2] [Manganese ethylene-1,2-bis-dithiocarbamate, reference compound] |  | 1 | 1 | 1 | 4 | 1 | 11 | 0 | 1 | 0 | 1 | 12 | 1 |  |  |  | 
